US9708268B2, “ROR modulators and their uses” (INNOV17 LLC, priority 2012, dated 2017)

Experiments:
IL-21 = test: Real-time qRT-PCR gene expression in TH17 cells (IL-21); type: cell-based, human; design: key: A: No change in gene expression observed relative to DMSO treated TH17 cells; B: Decreased gene expression observed relative to DMSO treated TH17 cells; C: Increased gene expression observed relative to DMSO treated TH17 cells; conditions: mRNA
Method: (§1) Peripheral blood mononuclear cells (PBMCs) were sourced from freshly prepared leukocyte enriched plasma (buffy coat) from healthy volunteers from which PBMCs were isolated by density gradient centrifugation using Ficoll-Paque™ PLUS (GE Healthcare). Naïve CD4+ T cells were isolated using the Naïve CD4+ T cell Isolation Kit II (Miltenyi Biotec) as per manufacturer's instructions. CD4+ T cells were plated at 5×10^4 cells/well in 96 well plates pre-coated with immobilized human (h)-αCD3 antibody (eBioscience) then differentiated to TH17 cells using h-αCD28, h-αIFN-γ, h-αIL-4, h-IL-6, h-IL-23, […], h-TGF-β1 (eBioscience) and maintained in a cell culture incubator at 37° C. with 5% CO2 in TexMACS Medium (Miltenyi Biotec) supplemented with 1% Penicillin/Streptomycin (Lonza) over 5 days.
(§2) RNA was isolated from TH17 cells and cDNA was synthesized using the Verso cDNA kit (Thermo Scientific) as per manufacturer's instructions. IL-17A, IL-17F, IL-21, IL-22, G-CSF, IL-23R and FOXP3 gene expression were determined for compound treated and untreated TH17 cell samples using Solaris qPCR Gene expression assays (Thermo Scientific) with an iCycler iQ Real-Time PCR Detection System (Bio-Rad). Individual gene expression was normalized to a panel of six reference genes (ACTB, TBP, HPRT1, PGK1, TFRC and PPIA) (Thermo Scientific) and analyzed by REST 2009 (Qiagen) in accordance to MIQE guidelines (Bustin, et al. (2009) Clin. Chem. 55, 611-622), which is hereby incorporated by reference in its entirety). The effects of compounds on TH17 cytokine mRNA levels are presented as fold change in gene expression of compound treated TH17 cells relative to DMSO treated cells in the table below.

[1] = TH17 cell viability (Prestoblue); type: cell-based; design: concentration or dose not given beside the values; conditions: human; percentage of DMSO treated cells; read-out: % viability of compound treated TH17 cells
Method: as §1
Cells were assayed for viability in the presence or absence of compound using Prestoblue® Cell Viability Reagent (Life Technologies) as per manufacturer's instructions after 30 minutes incubation of TH17 cells with reagent. Absorbance was measured at 570 nm and 600 nm using a microplate reader (Perkin Elmer) and data were analyzed as per manufacturer's instructions. Cell viability was expressed as a percentage of DMSO treated cells.

FOXP3 = test: Real-time qRT-PCR gene expression in TH17 cells (FOXP3); type: cell-based, human; design: key: A: No change in gene expression observed relative to DMSO treated TH17 cells; B: Decreased gene expression observed relative to DMSO treated TH17 cells; C: Increased gene expression observed relative to DMSO treated TH17 cells; conditions: mRNA
Method: as §1, §2

IL-17A [2] = test: TH17 cytokine inhibition as measured by ELISA (IL-17A); type: cell-based; conditions: 120 h; human CD4+ T cells differentiated to TH17 over 5 days, supernatant ELISA, vs DMSO
Method: as §1
(§3) Human CD4+ T cells were differentiated to TH17 cells as described in the presence or absence of various concentrations of compounds in a final concentration of 0.1% DMSO in TexMACS medium. Supernatants were collected and stored at −20° C. until they were to be assayed for IL-17A, IL-17F, IL-17AF, IL-21 and/or IL-22 levels as determined by Ready-Set-Go ELISA kits (eBioscience) as per manufacturer's instructions. Endpoint absorbance was read at 450 nm and 570 nm according to manufacturer's instructions (eBioscience) using a microplate reader (Perkin Elmer). The percentage of cytokine inhibition was calculated with reference to DMSO treated cells and the IC50s were determined by GraphPad Prism software and presented in the table below.

human RORγ LBD = human RORγ LBD (Homo sapiens (Human), UniProt P51449); test: RORγ LBD binding (Human RORγ Assay System, INDIGO Biosciences)
Sequence of human RORγ LBD (P51449 269-508): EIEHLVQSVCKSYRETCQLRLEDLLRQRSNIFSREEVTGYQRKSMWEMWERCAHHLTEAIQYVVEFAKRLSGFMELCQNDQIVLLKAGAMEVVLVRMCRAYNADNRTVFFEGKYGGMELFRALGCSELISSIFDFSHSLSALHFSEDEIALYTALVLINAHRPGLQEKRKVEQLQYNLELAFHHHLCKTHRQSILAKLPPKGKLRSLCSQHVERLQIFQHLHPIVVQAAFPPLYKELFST
Method: Compound binding to the human RORγ LBD was assessed using the Human RORγ Assay System (INDIGO Biosciences Inc.) as per manufacturer's instructions.

IL-23R = test: Real-time qRT-PCR gene expression in TH17 cells (IL-23R); type: cell-based, human; design: key: A: No change in gene expression observed relative to DMSO treated TH17 cells; B: Decreased gene expression observed relative to DMSO treated TH17 cells; C: Increased gene expression observed relative to DMSO treated TH17 cells; conditions: mRNA
Method: as §1, §2

IL-17AF = test: TH17 cytokine inhibition as measured by ELISA (IL-17AF); type: cell-based; conditions: 120 h; human CD4+ T cells differentiated to TH17 over 5 days, supernatant ELISA, vs DMSO
Method: as §1, §3

IL-22 [3] = test: Real-time qRT-PCR gene expression in TH17 cells (IL-22); type: cell-based, human; design: key: A: No change in gene expression observed relative to DMSO treated TH17 cells; B: Decreased gene expression observed relative to DMSO treated TH17 cells; C: Increased gene expression observed relative to DMSO treated TH17 cells; conditions: mRNA
Method: as §1, §2

TH17 cells = test: TH17 cellular proliferation (Prestoblue); type: cell-based, human; conditions: 3 μM compound, after 5 day TH17 differentiation, relative to DMSO treated cells
Method: as §1
Cellular proliferation was assessed in the presence or absence of 3 μM compound using Prestoblue® Cell Viability Reagent (Life Technologies) as per manufacturer's instructions using absorbance as the output measured by a microplate reader (Perkin Elmer) after 30 minutes of incubation of cells and reagent. A standard curve developed by plotting varying cell numbers versus absorbance was used to assess differences in cellular proliferation between compound treated or untreated cells after the 5 day TH17 differentiation period.

IL-17A [4] = test: Real-time qRT-PCR gene expression in TH17 cells (IL-17A); type: cell-based, human; design: key: A: No change in gene expression observed relative to DMSO treated TH17 cells; B: Decreased gene expression observed relative to DMSO treated TH17 cells; C: Increased gene expression observed relative to DMSO treated TH17 cells; conditions: mRNA
Method: as §1, §2

IL-17F [5] = test: Real-time qRT-PCR gene expression in TH17 cells (IL-17F); type: cell-based, human; design: key: A: No change in gene expression observed relative to DMSO treated TH17 cells; B: Decreased gene expression observed relative to DMSO treated TH17 cells; C: Increased gene expression observed relative to DMSO treated TH17 cells; conditions: mRNA
Method: as §1, §2

IL-17F [6] = test: TH17 cytokine inhibition as measured by ELISA (IL-17F); type: cell-based; conditions: 120 h; human CD4+ T cells differentiated to TH17 over 5 days, supernatant ELISA, vs DMSO
Method: as §1, §3

IL-22 [7] = test: TH17 cytokine inhibition as measured by ELISA (IL-22); type: cell-based; conditions: 120 h; human CD4+ T cells differentiated to TH17 over 5 days, supernatant ELISA, vs DMSO
Method: as §1, §3

SMILES	Change in gene expression of compound treated TH17 cells relative to DMSO treated cells, IL-21 (IL-21)	viability [1]	Change in gene expression of compound treated TH17 cells relative to DMSO treated cells, FOXP3 (FOXP3)	IC50 (IL-17A [2])	IC50 (human RORγ LBD)	Change in gene expression of compound treated TH17 cells relative to DMSO treated cells, IL-23R (IL-23R)	IC50 (IL-17AF)	Change in gene expression of compound treated TH17 cells relative to DMSO treated cells, IL-22 (IL-22 [3])	% change in TH17 cell number (TH17 cells)	Change in gene expression of compound treated TH17 cells relative to DMSO treated cells, IL-17A (IL-17A [4])	Change in gene expression of compound treated TH17 cells relative to DMSO treated cells, IL-17F (IL-17F [5])	IC50 (IL-17F [6])	IC50 (IL-22 [7])
CNC(=O)c1ccc2c(c1)CCCN2Cc1ccc(C(O)(C(F)(F)F)C(F)(F)F)cc1 [Example 3, 1-(4-(1,1,1,3,3,3-hexafluoro-2-hydroxypropan-2-yl)benzyl)-N-methyl-1,2,3,4-tetrahydroquinoline-6-carboxamide]	A	> 80%	A	< 10 µM	< 10 µM	A	< 10 µM	A	B (≦50% decrease in cell proliferation relative to DMSO treated TH17 cells)	A	A	< 10 µM	< 10 µM
CN(C)C(=O)c1ccc2c(c1)CCCN2Cc1ccc(C(O)(C(F)(F)F)C(F)(F)F)cc1 [Example 4, 1-(4-(1,1,1,3,3,3-hexafluoro-2-hydroxypropan-2-yl)benzyl)-N,N-dimethyl-1,2,3,4-tetrahydroquinoline-6-carboxamide]	A	> 80%	A	< 10 µM	< 10 µM	A	< 10 µM	A	B (≦50% decrease in cell proliferation relative to DMSO treated TH17 cells)	A	A	< 10 µM	< 10 µM
